The nature of data set [1]: Nilotinib solubilities without and with formic acid. The following applies: for Solubility with formic acid: 4.0 molar equivalents of formic acid.
The conditions of data set [2]: according to go.drugbank.com; cited from earlier work.
A short description of data set [3]: physchem. The conditions noted are these: 25 °C, organic solvent or mixture.
A short description of data set [4]: Gefitinib solubility in methanol and methanol:water mixtures (saturated solutions, HPLC). Type of data set: physicochemical. The following applies: 20° C.; for Solubility without formic acid: calculated based on densities at RT. As to the method:
Crystalline gefitinib was added in excess to methanol and methanol:water mixtures to form saturated solutions at 20° C. After 24 hour of stirring, 1 mL aliquots were centrifuged at 10'000 RCF for 3 min. The supernatant was then analyzed for gefitinib concentration by HPLC.

Data set [5] can be described thus: physchem. The conditions noted are these: 21 °C, organic solvent or mixture, thermodynamic from solid, Solubility with formic acid. As to the method:
The solubility of gefitinib in solvent mixtures with 98% formic acid were obtained by suspending at RT 300 mg of crystalline gefitinib in 5 mL of solvent containing 100 microliters of formic acid at 21° C. (4.0 eq of formic acid). Both solutions were visually clear solutions at 60 mg/mL.
5 ml of a mixture of 4.9 ml of 90:10 methanol/water w/w with 0.1 ml HCOOH weigh 4.122 g based on the densities at RT as stated below.
5 ml of a mixture of 4.9 ml 80:20 methanol:water w/w with 0.1 ml HCOOH weigh 4.212 g based on the densities at RT as stated below.
The solution in the mixture of 4.9 ml of 90:10 MeOH:H2O w/w with 0.1 ml HCOOH was a visually clear solution at 72.8 mg/g based on the densities at RT as stated below.
The solution in the mixture of 4.9 ml of 80:20 MeOH:H2O w/w with 0.1 ml HCOOH was a visually clear solution at 71.2 mg/g based on the densities at RT as stated below.
[Solubility with formic acid]/[Solubility without formic acid]

In brackets after ≈: the same amount, converted by molar mass. Where only a bound is given, the exact number is not on record here.

In the case of `Cc1cn(-c2cc(NC(=O)c3ccc(C)c(Nc4nccc(-c5cccnc5)n4)c3)cc(C(F)(F)F)c2)cn1` [nilotinib], the “Solubility with formic acid” value in data set [1] (MeOH:H2O 80:20 (w/w), 25° C.) was found to be 8200 µg/mL; in data set [1] (MeOH:H2O 90:10 (w/w), 25° C.), 8200 µg/mL; in data set [1] (MeOH:H2O 100:0 (w/w), 25° C.), 7900 µg/mL. The “Solubility without formic acid” value in data set [1] (MeOH:H2O 80:20 (w/w), 25° C.) amounted to 1000 µg/mL (≈ 1.89 mM). The “effect of addition of formic acid on solubility over the solubility in MeOH” value in data set [1] (formic acid with and without the presence of water) is on record as “increase of solubility”. Moreover, in data set [2], the “basic pKa” value was 5.92. In addition, the solubility in “physchem [3]” (methanol) worked out at 2900 µg/mL (≈ 5.48 mM); in the data set “physchem [3]” (methanol:water 90:10 (w/w)) it was 2000 µg/mL (≈ 3.78 mM).

For `COc1cc2ncnc(Nc3ccc(F)c(Cl)c3)c2cc1OCCCN1CCOCC1` [gefitinib], the “Solubility without formic acid” value in data set [4] (MeOH:H2O 80:20 (w/w)) is 7.6 mg/g; in data set [4] (MeOH:H2O 90:10 (w/w)), 7.4 mg/g; in data set [4] (MeOH:H2O 100:0 (w/w)), 8.8 mg/g. Moreover, the solubility at 24 h in data set [4] (methanol, organic solvent or mixture, thermodynamic from solid, MeOH:H2O 100:0 (w/w), read-out: Solubility without formic acid) came out at 7000 µg/mL (≈ 15.7 mM). For the same compound, the solubility in the data set “physchem [5]” was ≥ 60000 µg/mL.

The values above are taken from patent US20240261225A1, “FORMIC ACID AS PROCESSING AID IN SPRAY DRYING FOR BASIC DRUGS” (Lonza Bend Inc., priority 2021, published 2024).
